Here are results for 9 compounds from patent US11254668B2, “Pyrazolo[1,5-A]pyrazin-4-yl and related derivatives” (Pfizer Inc., priority 2017, dated 2022).

SMILES strings stand for the structures.

Type in all cases: biochemical
Holding throughout (conditions): JAK Caliper enzyme assay

One experiment concerns the target JAK1 (Homo sapiens (Human), UniProt P23458). The experiment in a line: JAK Caliper Enzyme Assay at 1 mM ATP, JAK1. The essentials:
(§1)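 Recombinant human kinase domains phosphorylate a fluorescent synthetic peptide at 1 mM ATP, room temperature, with enzyme and time tuned for 20-30% conversion; EDTA-stopped. Product/substrate separated by microfluidic mobility shift; percent effect versus DMSO and positive controls fitted to IC50 (nM).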

Another experiment has as its target JAK3 (Homo sapiens (Human), UniProt P52333). The experiment in a line: JAK Caliper Enzyme Assay at 1 mM ATP, JAK3. Put shortly: as §1
The target in the next experiment is TYK2 (Homo sapiens (Human), UniProt P29597). The experiment in a line: JAK Caliper Enzyme Assay at 1 mM ATP, TYK2. Put shortly: (§2)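 Human recombinant kinase domain + fluorescently labelled synthetic peptide, 1 mM ATP, RT; enzyme level/time set for 20–30% phosphorylation. EDTA stop. LabChip separation, peak-height % conversion, % effect vs plate controls.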
TYK2, sequence (P29597 897-1176): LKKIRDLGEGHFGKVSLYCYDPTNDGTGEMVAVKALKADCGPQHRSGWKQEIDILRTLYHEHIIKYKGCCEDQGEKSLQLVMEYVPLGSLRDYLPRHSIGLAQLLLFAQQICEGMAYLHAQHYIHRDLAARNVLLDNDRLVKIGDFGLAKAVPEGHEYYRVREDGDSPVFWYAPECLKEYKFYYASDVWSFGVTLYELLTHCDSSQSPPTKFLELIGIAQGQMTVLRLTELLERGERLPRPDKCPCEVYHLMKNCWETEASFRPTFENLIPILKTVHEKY
A further experiment deals with JAK2 (Homo sapiens (Human), UniProt O60674). As to the kind of experiment: JAK Caliper Enzyme Assay at 1 mM ATP, JAK2. The essentials:
as §2

JAK3, sequence (P52333 822-1111): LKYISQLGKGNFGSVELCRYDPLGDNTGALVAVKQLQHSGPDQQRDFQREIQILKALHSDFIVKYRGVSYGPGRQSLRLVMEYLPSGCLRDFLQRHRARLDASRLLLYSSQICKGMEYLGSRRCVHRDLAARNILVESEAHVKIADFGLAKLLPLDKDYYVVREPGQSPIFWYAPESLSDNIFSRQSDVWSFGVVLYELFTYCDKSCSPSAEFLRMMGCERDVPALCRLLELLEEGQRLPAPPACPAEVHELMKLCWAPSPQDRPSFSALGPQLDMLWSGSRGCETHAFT
JAK1, sequence (P23458 875-1153): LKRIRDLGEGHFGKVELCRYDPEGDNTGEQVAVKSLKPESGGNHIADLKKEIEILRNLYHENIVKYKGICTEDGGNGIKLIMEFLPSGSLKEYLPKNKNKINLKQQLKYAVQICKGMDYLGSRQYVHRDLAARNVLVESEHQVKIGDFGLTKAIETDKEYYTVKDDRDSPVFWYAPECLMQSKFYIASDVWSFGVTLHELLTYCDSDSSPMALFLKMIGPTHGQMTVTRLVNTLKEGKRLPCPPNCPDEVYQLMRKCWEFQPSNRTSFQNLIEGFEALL
JAK2, sequence (O60674 849-1124): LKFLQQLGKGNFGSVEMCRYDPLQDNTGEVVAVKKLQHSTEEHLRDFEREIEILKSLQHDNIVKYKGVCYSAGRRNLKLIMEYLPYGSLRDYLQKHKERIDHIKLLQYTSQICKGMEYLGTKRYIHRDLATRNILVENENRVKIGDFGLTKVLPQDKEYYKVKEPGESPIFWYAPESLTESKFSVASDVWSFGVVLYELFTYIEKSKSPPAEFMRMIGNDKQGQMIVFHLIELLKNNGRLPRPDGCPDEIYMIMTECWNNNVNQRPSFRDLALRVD

For the compound `CN1C(=O)COc2ccc(-c3cc(-c4cnn([C@]5(CC#N)C[C@H](C#N)C5)n4)c4cccnc4c3)nc21` [Example 425, cis-3-(cyanomethyl)-3-{4-[7-(4-methyl-3-oxo-3,4-dihydro-2H-pyrido[3,2-b][1,4]oxazin-6-yl)quinolin-5-yl]-2H-1,2,3-triazol-2-yl}cyclobutanecarbonitrile], the IC50 was 0.608 µM on JAK1, more than 10 µM on JAK3, 0.012 µM at TYK2 and 0.029 µM on JAK2.

`CN1C(=O)COc2ccc(-c3cc(-c4cnn([C@]5(CC#N)C[C@@H](C#N)C5)n4)c4cccnc4c3)nc21` [Example 426, trans-3-(cyanomethyl)-3-{4-[7-(4-methyl-3-oxo-3,4-dihydro-2H-pyrido[3,2-b][1,4]oxazin-6-yl)quinolin-5-yl]-2H-1,2,3-triazol-2-yl}cyclobutanecarbonitrile]: the concentration for half-maximal inhibition (IC50) is 1 µM on JAK1, more than 10 µM on JAK3, 0.024 µM on TYK2 and 0.05 µM on JAK2.

With `CS(=O)(=O)N1CC(CC#N)(n2ncc(-c3cc(-c4cccc(CN)c4)cc4ncccc34)n2)C1` [Example 427, [3-(4-{7-[3-(aminomethyl)phenyl]quinolin-5-yl}-2H-1,2,3-triazol-2-yl)-1-(methylsulfonyl)azetidin-3-yl]acetonitrile], the IC50 at JAK1 is more than 10 µM; at JAK3, more than 10 µM; on TYK2, 0.709 µM; on JAK2, 3.15 µM.

With `CS(=O)(=O)N1CC(CC#N)(n2ncc(-c3cc(-c4ccc(CN)cc4)cc4ncccc34)n2)C1` [Example 428, [3-(4-{7-[4-(aminomethyl)phenyl]quinolin-5-yl}-2H-1,2,3-triazol-2-yl)-1-(methylsulfonyl)azetidin-3-yl]acetonitrile], the half-inhibitory concentration (IC50) on JAK1 is 9.32 µM; on JAK3, more than 10 µM; on TYK2 it was 0.128 µM; on JAK2, 0.924 µM.

With `CS(=O)(=O)N1CC(CC#N)(n2ncc(-c3cc(-c4cccc(CO)c4)cc4ncccc34)n2)C1` [Example 429, [3-(4-{7-[3-(hydroxymethyl)phenyl]quinolin-5-yl}-2H-1,2,3-triazol-2-yl)-1-(methylsulfonyl)azetidin-3-yl]acetonitrile], the half-maximal inhibitory concentration (IC50) on JAK1 was 4 µM; on JAK3, more than 10 µM; at TYK2 it was 0.112 µM; on JAK2, 1.12 µM.

For the compound `CS(=O)(=O)N1CC(CC#N)(n2ncc(-c3cc(-c4cccc(C(N)=O)c4)cc4ncccc34)n2)C1` [Example 430, 3-(5-{2-[3-(cyanomethyl)-1-(methylsulfonyl)azetidin-3-yl]-2H-1,2,3-triazol-4-yl}quinolin-7-yl)benzamide], the IC50 on JAK1 is 3.14 µM; on JAK3 it was more than 10 µM; at TYK2, 0.093 µM; on JAK2 it was 0.909 µM.

As for `N#CC[C@]1(n2ncc(-c3cc(-c4ccc(C(N)=O)cc4)cc4ncccc34)n2)C[C@H](C#N)C1` [Example 433, 4-(5-{2-[cis-3-cyano-1-(cyanomethyl)cyclobutyl]-2H-1,2,3-triazol-4-yl}quinolin-7-yl)benzamide], the IC50 at JAK1 was 0.352 µM; on JAK3, 6.7 µM; at TYK2 it was 0.02 µM; at JAK2, 0.116 µM.

With `N#CCC1(n2ncc(-c3cc(-c4ccc(C(N)=O)cc4)cc4ncccc34)n2)CC(C#N)C1` (stereo not drawn) [Example 434, 4-(5-{2-[trans-3-cyano-1-(cyanomethyl)cyclobutyl]-2H-1,2,3-triazol-4-yl}quinolin-7-yl)benzamide], the IC50 at JAK1 is 2.52 µM; on JAK3, more than 10 µM; on TYK2 it was 0.099 µM; at JAK2, 0.748 µM.

As for `N#CC[C@]1(n2ncc(-c3cc(-c4ccc(C(=O)O)cc4)cc4ncccc34)n2)C[C@H](C#N)C1` [Example 435, 4-(5-{2-[cis-3-cyano-1-(cyanomethyl)cyclobutyl]-2H-1,2,3-triazol-4-yl}quinolin-7-yl)benzoic acid], the IC50 was 0.208 µM on JAK1, more than 10 µM at JAK3, 0.017 µM at TYK2 and 0.179 µM at JAK2.
